Data from the supplement of paper PMC10307832.

Experiments:
Assay in all cases: relative viability (nuclei count vs DMSO), 5 days (fraction); higher = more cells survive
[1] = compound: CC1=CC(=CC=C1)NC2=NC(=CS2)C3=CC=NC=C3 + Cc1nc(NC(=O)N2CCC[C@H]2C(N)=O)sc1-c1ccnc(C(C)(C)C(F)(F)F)c1 [Alpelisib] (partner 2 µM)
In short: (§1)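 After 5 days of treatment, lung cancer cells in 1536-well plates were fixed and stained in a single step (final 0.05% Triton X-100, 1% formaldehyde, 1 ug/ml Hoechst) and their nuclei counted on 4× images. Treatment had been applied by pin tool the day after seeding as one drug alone or as a fixed anchor-drug dose with five library-drug doses (not always all listed) in √10 steps. Relative viability is the nuclei count of treated wells divided by that of vehicle wells, and values are medians of duplicate plates.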

[2] = compound: CC1=CC(=CC=C1)NC2=NC(=CS2)C3=CC=NC=C3 + O=C(CCCCCCC(=O)Nc1ccccc1)NO [Vorinostat] (partner 1 µM)
In short: as §1

Masitinib + Linsitinib = compound: Cc1ccc(NC(=O)c2ccc(CN3CCN(C)CC3)cc2)cc1Nc1nc(-c2cccnc2)cs1 [Masitinib] + C[C@]1(O)C[C@@H](c2nc(-c3ccc4ccc(-c5ccccc5)nc4c3)c3c(N)nccn32)C1 [Linsitinib] (partner 1 µM)
In short: as §1

Masitinib + Dasatinib = compound: Cc1ccc(NC(=O)c2ccc(CN3CCN(C)CC3)cc2)cc1Nc1nc(-c2cccnc2)cs1 [Masitinib] + Cc1nc(Nc2ncc(C(=O)Nc3c(C)cccc3Cl)s2)cc(N2CCN(CCO)CC2)n1 [Dasatinib] (partner 0.075 µM)
In short: as §1

UMC-11
relative viability ([1]; first compound 0.08 µM): 1.02
relative viability ([1]; first compound 0.253 µM): 0.91
relative viability ([1]; first compound 0.8 µM): 0.993
relative viability ([1]; first compound 2.53 µM): 0.993
relative viability ([1]; first compound 8 µM): 1.06
relative viability ([2]; first compound 0.08 µM): 0.356
relative viability ([2]; first compound 0.253 µM): 0.32
relative viability ([2]; first compound 0.8 µM): 0.354
relative viability ([2]; first compound 2.53 µM): 0.34
relative viability ([2]; first compound 8 µM): 0.487
relative viability (Masitinib + Linsitinib; first compound 0.01 µM): 0.982
relative viability (Masitinib + Linsitinib; first compound 0.03162 µM): 1.12
relative viability (Masitinib + Linsitinib; first compound 0.1 µM): 1.27
relative viability (Masitinib + Linsitinib; first compound 0.3162 µM): 1.07
relative viability (Masitinib + Linsitinib; first compound 1 µM): 1.25
relative viability (Masitinib + Dasatinib; first compound 0.03162 µM): 0.35
relative viability (Masitinib + Dasatinib; first compound 0.1 µM): 0.535
relative viability (Masitinib + Dasatinib; first compound 0.3162 µM): 0.556
relative viability (Masitinib + Dasatinib; first compound 1 µM): 0.509
